Earlier results in patent US20070112055A1, “Crystalline forms of almotriptan and processes for their preparation” (Glenmark Pharmaceuticals Limited, priority 2005, published 2007).

Legend:
5-HT1D receptors = 5-HT1D receptors (Homo sapiens, UniProt P28221); settings: general statement of the related art
5-HT1B receptors = 5-HT1B receptors (Homo sapiens, UniProt P28222); settings: general statement of the related art
5-HT1F receptors = target: T1, 5-HT1F receptors (Homo sapiens, UniProt P30939); settings: general statement of the related art
T1 sequence (P30939 1-366): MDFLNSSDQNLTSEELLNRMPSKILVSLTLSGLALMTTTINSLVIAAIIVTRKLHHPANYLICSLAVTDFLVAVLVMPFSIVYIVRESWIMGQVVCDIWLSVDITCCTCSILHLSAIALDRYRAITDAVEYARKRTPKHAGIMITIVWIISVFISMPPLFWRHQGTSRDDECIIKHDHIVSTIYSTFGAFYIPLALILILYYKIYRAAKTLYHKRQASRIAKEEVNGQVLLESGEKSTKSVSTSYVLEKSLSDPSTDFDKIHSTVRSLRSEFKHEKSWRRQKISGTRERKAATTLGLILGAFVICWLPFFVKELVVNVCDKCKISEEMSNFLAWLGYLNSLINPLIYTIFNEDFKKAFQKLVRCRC

5-HT1A receptors = target: T2, 5-HT1A receptors (Homo sapiens, UniProt P08908); settings: general statement of the related art
T2 sequence (P08908 1-422): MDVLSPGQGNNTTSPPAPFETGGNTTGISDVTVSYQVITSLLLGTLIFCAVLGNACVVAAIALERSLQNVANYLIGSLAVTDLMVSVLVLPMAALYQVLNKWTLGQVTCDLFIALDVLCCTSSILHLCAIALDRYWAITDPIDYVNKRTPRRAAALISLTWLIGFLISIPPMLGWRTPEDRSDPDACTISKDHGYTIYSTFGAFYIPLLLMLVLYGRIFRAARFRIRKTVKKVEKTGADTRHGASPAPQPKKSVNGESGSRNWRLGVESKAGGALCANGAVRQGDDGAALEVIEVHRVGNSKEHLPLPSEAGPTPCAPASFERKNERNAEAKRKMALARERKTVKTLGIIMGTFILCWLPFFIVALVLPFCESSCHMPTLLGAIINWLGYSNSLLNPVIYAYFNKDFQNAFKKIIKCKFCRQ

5-HT7 receptors = 5-HT7 receptors (Homo sapiens, UniProt P34969); settings: general statement of the related art
Sequence of 5-HT7 receptors (P34969 whole entry): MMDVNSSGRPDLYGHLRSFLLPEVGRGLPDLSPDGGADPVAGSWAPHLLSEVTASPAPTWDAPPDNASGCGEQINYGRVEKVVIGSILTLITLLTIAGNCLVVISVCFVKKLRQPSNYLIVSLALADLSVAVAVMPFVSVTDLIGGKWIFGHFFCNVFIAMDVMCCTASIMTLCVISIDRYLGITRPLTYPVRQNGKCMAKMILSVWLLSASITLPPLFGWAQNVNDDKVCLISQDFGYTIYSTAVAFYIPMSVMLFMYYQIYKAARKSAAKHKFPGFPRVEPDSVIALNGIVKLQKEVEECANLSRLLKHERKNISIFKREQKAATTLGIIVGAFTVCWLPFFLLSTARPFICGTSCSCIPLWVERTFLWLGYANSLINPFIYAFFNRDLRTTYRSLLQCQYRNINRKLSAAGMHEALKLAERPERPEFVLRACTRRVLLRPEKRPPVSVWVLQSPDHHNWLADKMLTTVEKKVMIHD

[1] = amorphous form compared with the crystalline forms

Sequence of 5-HT1B receptors (P28222 whole entry): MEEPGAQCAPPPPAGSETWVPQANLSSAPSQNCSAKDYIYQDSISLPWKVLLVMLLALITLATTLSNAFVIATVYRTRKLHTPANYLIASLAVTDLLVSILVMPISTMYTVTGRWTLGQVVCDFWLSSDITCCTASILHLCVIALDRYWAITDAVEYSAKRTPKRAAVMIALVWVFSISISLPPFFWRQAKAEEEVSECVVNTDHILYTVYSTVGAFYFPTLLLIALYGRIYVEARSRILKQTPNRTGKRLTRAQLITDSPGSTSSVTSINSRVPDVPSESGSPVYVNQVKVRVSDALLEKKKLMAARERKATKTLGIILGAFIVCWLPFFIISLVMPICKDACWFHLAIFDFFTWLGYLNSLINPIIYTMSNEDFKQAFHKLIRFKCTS
Sequence of 5-HT1D receptors (P28221 whole entry): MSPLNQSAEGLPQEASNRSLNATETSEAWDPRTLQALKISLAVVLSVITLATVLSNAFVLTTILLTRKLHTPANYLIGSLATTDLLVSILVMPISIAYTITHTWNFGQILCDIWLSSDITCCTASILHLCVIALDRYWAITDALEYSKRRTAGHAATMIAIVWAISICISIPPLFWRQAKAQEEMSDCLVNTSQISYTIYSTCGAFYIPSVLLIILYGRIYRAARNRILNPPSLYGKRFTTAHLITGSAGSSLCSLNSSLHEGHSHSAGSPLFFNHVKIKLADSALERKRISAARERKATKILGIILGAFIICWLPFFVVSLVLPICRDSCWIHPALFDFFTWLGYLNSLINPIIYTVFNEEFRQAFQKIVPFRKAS

SMILES	affinity to 5-HT1D receptors (5-HT1D receptors)	affinity to 5-HT1B receptors (5-HT1B receptors)	affinity to 5-HT1F receptors (5-HT1F receptors)	affinity for 5-HT1A receptors (5-HT1A receptors)	affinity for 5-HT7 receptors (5-HT7 receptors)	bioavailability [1]
CN(C)CCc1c[nH]c2ccc(CS(=O)(=O)N3CCCC3)cc12 [Almotriptan, 1-[[[3-[2-(dimethylamino)ethyl]indol-5-yl]methyl]sulfonyl]pyrrolidine]	high affinity	high affinity	high affinity	weak affinity	weak affinity	–
CO/N=C(\C(=O)N[C@@H]1C(=O)N2C(C(=O)OC(C)OC(C)=O)=C(COC(N)=O)CS[C@H]12)c1ccco1 (stereo partly drawn) [cefuroxime axietil]	–	–	–	–	–	much higher bioavailability than the crystalline forms
